According to patent publication US11033539B2, “Compounds of formulas (VII), (VIII), (IX), (XI), (XII), (XIII), and (XIV) as muscarinic receptor 4(M4) antagonists for treating neurological diseases” (Neurocrine Biosciences, Inc., priority 2015, dated 2021):

Each compound was assayed against human M4 receptor (Homo sapiens (Human), UniProt P08173) (assay: Radioligand (tritiated N-methylscopolamine) binding assay, M4). Conditions: Ki against the M4 receptor; membranes from CHO cells expressing human M4; tritiated N-methylscopolamine 1.5 nM; read-out: Ki.
Method: Binding affinity (Ki) of compounds was measured by inhibition of radioligand binding to membranes from CHO cells expressing human M1, M2, M3, M4 and M5 receptors. Membranes were prepared by nitrogen cavitation and differential centrifugation as previously described (Hoare et al., Mol. Pharmacol. 2003 March; 63(3): 751-65). The radioligand employed was tritiated N-methylscopolamine, used at a concentration of 1.5 nM. A dose-response of twelve concentrations of compound was used, ranging from 10 μM to […]. The assay buffer was 50 mM HEPES, 100 mM NaCl, 5 mM MgCl2, 1 mM ethylenediaminetetraacetic acid, pH-adjusted to pH 7.4. Membranes, radioligand and compound were incubated together for 90 minutes at 37° C., in a total volume of 150 μl in a 96-well plate. Receptor-bound radioligand was then collected by harvesting the assay over glass fiber filters pretreated with polyethylenimine to trap the cell membranes, using rapid vacuum filtration. Harvesting and radioactivity counting was conducted as previously described (see, e.g., Hoare et al., Mol. Pharmacol. 2003 63(3):751-65); Erratum at Mol. Pharmacol. 2005 July; 68(1): 260).

human M4 receptor, sequence (P08173 whole entry): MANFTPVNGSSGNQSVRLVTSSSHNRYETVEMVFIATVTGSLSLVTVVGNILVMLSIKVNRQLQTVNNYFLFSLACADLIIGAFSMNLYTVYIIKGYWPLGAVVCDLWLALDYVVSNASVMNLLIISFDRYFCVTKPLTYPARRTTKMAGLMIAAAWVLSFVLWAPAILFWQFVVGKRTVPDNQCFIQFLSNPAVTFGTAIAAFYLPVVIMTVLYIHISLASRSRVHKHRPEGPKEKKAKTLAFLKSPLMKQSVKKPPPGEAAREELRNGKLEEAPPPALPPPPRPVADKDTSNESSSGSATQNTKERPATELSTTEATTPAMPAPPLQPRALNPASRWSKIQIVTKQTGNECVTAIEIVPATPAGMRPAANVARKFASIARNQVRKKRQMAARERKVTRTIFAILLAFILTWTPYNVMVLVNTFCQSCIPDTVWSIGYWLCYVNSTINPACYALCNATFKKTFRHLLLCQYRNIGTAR

Ki [µM] | SMILES
0.1 to 1 | Cc1cc(Cl)c(-c2cc(C(=O)NCC[C@@H]3CCN(Cc4ccccc4)C3)ccc2Cl)cn1 [9-20, N-{2-[(3R)-1-benzylpyrrolidin-3-yl]ethyl}-4-chloro-3-(4-chloro-6-methylpyridin-3-yl)benzamide]
0.1 to 1 | Cc1ccc(N2CCN(C(=O)NCCC3CCN(Cc4ccccc4)CC3)CC2)c(CO)c1 [8-43, N-[2-(1-benzylpiperidin-4-yl)ethyl]-4-[2-(hydroxymethyl)-4-methylphenyl]piperazine-1-carboxamide]
0.1 to 1 | Cc1c(C(=O)NCCC2CCN(Cc3ccccc3)CC2)cnc2cc(-c3cccnc3F)nn12 [18-18]
0.01 to 0.1 | C[C@@H]1CN(c2cnc3ccccc3c2)CCN1C(=O)NCCC1CCN(Cc2ccccc2)CC1 [4-40, (2R)-N-[2-(1-benzylpiperidin-4-yl)ethyl]-2-methyl-4-(quinolin-3-yl)piperazine-1-carboxamide]
0.01 to 0.1 | C[C@@H]1CN(c2ncc(C#N)cn2)C[C@H](C)N1C(=O)NCCC1CCN(CC23C4C5C6C4C2C6C53)CC1 (some centres unmarked) [21-13]
0.01 to 0.1 | C[C@@H]1CN(c2cc(F)c(F)c(F)c2)CCN1C(=O)NCCC1CCN(Cc2ccccc2F)CC1 [6-5, (2R)-N-(2-{1-[(2-fluorophenyl)methyl]piperidin-4-yl}ethyl)-2-methyl-4-(3,4,5-trifluorophenyl)piperazine-1-carboxamide]
0.1 to 1 | O=C(NCCC1CCN(Cc2ccccc2)CC1)[C@@H]1CCN(c2ccc(OC(F)(F)F)cc2)C1 [10-72, (3R)-N-[2-(1-benzylpiperidin-4-yl)ethyl]-1-[4-(trifluoromethoxy)phenyl]pyrrolidine-3-carboxamide]
0.01 to 0.1 | C[C@@H]1CN(c2ccc(C#N)cn2)CCN1C(=O)NCCC1CCN(Cc2ccccc2)CC1 [4-31, (2R)-N-[2-(1-benzylpiperidin-4-yl)ethyl]-4-(5-cyanopyridin-2-yl)-2-methylpiperazine-1-carboxamide]
0.1 to 1 | Cc1nnc(C(c2ccccc2)N2CCC(CCNC(=O)N3CCN(c4cc(F)c(F)c(F)c4)C[C@H]3C)CC2)o1 (stereo partly drawn) [6-19, (2R)-2-methyl-N-(2-{1-[(5-methyl-1,3,4-oxadiazol-2-yl)(phenyl)methyl]piperidin-4-yl}ethyl)-4-(3,4,5-trifluorophenyl)piperazine-1-carboxamide]
0.1 to 1 | Cc1c(C(=O)NCCC2CCN(Cc3cccnc3)CC2)cnc2cc(-c3cccc(C(F)(F)F)c3)nn12 [19-1, 7-methyl-N-{2-[1-(pyridin-3-ylmethyl)piperidin-4-yl]ethyl}-2-[3-(trifluoromethyl)phenyl]pyrazolo[1,5-a]pyrimidine-6-carboxamide]
0.01 to 0.1 | CN(C(=O)NCCC1CCN(Cc2ccccc2)CC1)C1CCN(c2ccc(Br)cn2)C1 (centres unmarked) [8-9, 1-[2-(1-benzylpiperidin-4-yl)ethyl]-3-[1-(5-bromopyridin-2-yl)pyrrolidin-3-yl]-3-methylurea]
0.01 to 0.1 | COc1ccc(N2CCN(C(=O)NCCC3CCN(Cc4ccccc4)CC3)[C@H](C)C2)cc1F [4-70, (2R)-N-[2-(1-benzylpiperidin-4-yl)ethyl]-4-(3-fluoro-4-methoxyphenyl)-2-methylpiperazine-1-carboxamide]
0.1 to 1 | COC1(C(=O)NCCC2CCN(Cc3ccccc3)CC2)CCN(c2ccc(OC(F)(F)F)cn2)CC1 [10-63, N-[2-(1-benzylpiperidin-4-yl)ethyl]-4-methoxy-1-[5-(trifluoromethoxy)pyridin-2-yl]piperidine-4-carboxamide]
0.01 to 0.1 | C[C@@H]1CN(c2ccc(C#N)cc2)CCN1C(=O)NCCC1CCN(Cc2ccccc2)CC1 [4-25, (2R)-N-[2-(1-benzylpiperidin-4-yl)ethyl]-4-(4-cyanophenyl)-2-methylpiperazine-1-carboxamide]
0.01 to 0.1 | O=C(C1CCN(c2ncc(C(F)(F)F)cc2Cl)CC1)N1CCN(C2CCN(Cc3ccccc3)CC2)CC1 [9-21, 1-(1-benzylpiperidin-4-yl)-4-{1-[3-chloro-5-(trifluoromethyl)pyridin-2-yl]piperidine-4-carbonyl}piperazine]
0.01 to 0.1 | C[C@@H]1CN(c2cnc(C(F)(F)F)nc2)C[C@H](C)N1C(=O)NCCC1CCN(Cc2ccc(F)cc2)CC1 [6-55, (2R,6S)-N-(2-{1-[(4-fluorophenyl)methyl]piperidin-4-yl}ethyl)-2,6-dimethyl-4-[2-(trifluoromethyl)pyrimidin-5-yl]piperazine-1-carboxamide]
0.1 to 1 | C[C@@H]1CN(c2ncc(C(F)(F)F)cn2)CCN1C(=O)NCCC1CCN(Cc2ccncc2)CC1 [6-31, (2R)-2-methyl-N-{2-[1-(pyridin-4-ylmethyl)piperidin-4-yl]ethyl}-4-[5-(trifluoromethyl)pyrimidin-2-yl]piperazine-1-carboxamide]
0.01 to 0.1 | C[C@@H]1CN(c2ncc(C#N)cn2)C[C@H](C)N1C(=O)NCCC1CCN(Cc2ccc(N(C)C)cc2)CC1 [6-43, (2R,6S)-4-(5-cyanopyrimidin-2-yl)-N-[2-(1-{[4-(dimethylamino)-phenyl]methyl}piperidin-4-yl)ethyl]-2,6-dimethylpiperazine-1-carboxamide]

Ki [µM] | SMILES
0.1 to 1 | N#Cc1ccc(N2CCC(C(=O)NCCC3CCN(Cc4ccccc4)CC3)CC2)nc1 [9-47, N-[2-(1-benzylpiperidin-4-yl)ethyl]-1-(5-cyanopyridin-2-yl)piperidine-4-carboxamide]
0.1 to 1 | O=C(C1CCN(c2ccc(OC(F)(F)F)cc2)CC1)N(CCO)CCC1CCN(Cc2ccccc2)CC1 [9-3, N-[2-(1-benzylpiperidin-4-yl)ethyl]-N-(2-hydroxyethyl)-1-[4-(trifluoromethoxy)phenyl]piperidine-4-carboxamide]
0.1 to 1 | CCN1CCN(C2CCN(C(=O)NCCC3CCN(Cc4ccccc4)CC3)CC2)CC1 [8-37, N-[2-(1-benzylpiperidin-4-yl)ethyl]-4-(4-ethylpiperazin-1-yl)piperidine-1-carboxamide]
0.01 to 0.1 | C[C@@H]1CN(c2cccc(F)c2F)CCN1C(=O)NCCC1CCN(Cc2ccccc2)CC1 [4-37, (2R)-N-[2-(1-benzylpiperidin-4-yl)ethyl]-4-(2,3-difluorophenyl)-2-methylpiperazine-1-carboxamide]
0.01 to 0.1 | O=C(NCCC1CCN(Cc2ccccc2)CC1)c1ccc(-c2ccc(C(F)(F)F)cc2)cc1 [9-16, N-[2-(1-benzylpiperidin-4-yl)ethyl]-4-[4-(trifluoromethyl)phenyl]benzamide]
0.01 to 0.1 | C[C@@H]1CN(c2nc(F)c(F)c(F)n2)CCN1C(=O)NCCC1CCN(Cc2ccccc2)CC1 [5-6, (2R)-N-[2-(1-benzylpiperidin-4-yl)ethyl]-2-methyl-4-(trifluoropyrimidin-2-yl)piperazine-1-carboxamide]
0.1 to 1 | N#Cc1ccc(N2CCN(C(=O)NCCC3CCN(Cc4ccccc4)CC3)CC2)cc1 [8-27, N-[2-(1-benzylpiperidin-4-yl)ethyl]-4-(4-cyanophenyl)piperazine-1-carboxamide]
0.1 to 1 | N#Cc1cc(N2CCN(C(=O)OCCC3CCN(Cc4ccccc4)CC3)CC2)ccc1F [12-10, 2-(1-benzylpiperidin-4-yl)ethyl 4-(3-cyano-4-fluorophenyl)piperazine-1-carboxylate]
0.01 to 0.1 | N#Cc1cc(F)cc(N2CCN(C(=O)NCCC3CCN(Cc4ccccc4)CC3)CC2)c1 [8-18, N-[2-(1-benzylpiperidin-4-yl)ethyl]-4-(3-cyano-5-fluorophenyl)piperazine-1-carboxamide]
0.1 to 1 | CN(C(=O)NCCC1CCN(Cc2ccccc2)CC1)C1CCN(c2ccc(C(F)(F)F)cc2)C1 (centres unmarked) [8-21, 1-[2-(1-benzylpiperidin-4-yl)ethyl]-3-methyl-3-{1-[4-(trifluoromethyl)phenyl]pyrrolidin-3-yl}urea]
0.01 to 0.1 | C[C@@H]1CN(c2cnc(C#N)cn2)CCN1C(=O)NCCC1CCN(Cc2ccccc2)CC1 [22-27]
0.1 to 1 | O=C(NCCC1CCN(Cc2ccccc2)CC1)N1CCC(c2ccc(F)cc2)CC1 [8-20, N-[2-(1-benzylpiperidin-4-yl)ethyl]-4-(4-fluorophenyl)piperidine-1-carboxamide]
0.1 to 1 | O=C(NCCC1CCN(Cc2ccccc2)CC1)C1CCN(c2ccccc2OC(F)(F)F)CC1 [10-70, N-[2-(1-benzylpiperidin-4-yl)ethyl]-1-[2-(trifluoromethoxy)phenyl]piperidine-4-carboxamide]
0.01 to 0.1 | O=C(NCCC1CCN(Cc2ccc(F)cc2)CC1)c1ccc(OCc2ccccc2)cc1 [6-15, 4-(benzyloxy)-N-(2-{1-[(4-fluorophenyl)methyl]piperidin-4-yl}ethyl)benzamide]
0.1 to 1 | C[C@@H]1CN(c2ncc(C#N)cn2)C[C@H](C)N1C(=O)NCCC1CCN(Cc2cccnc2)CC1 [6-61, (2R,6S)-4-(5-cyanopyrimidin-2-yl)-2,6-dimethyl-N-{2-[1-(pyridin-3-ylmethyl)piperidin-4-yl]ethyl}piperazine-1-carboxamide]
0.01 to 0.1 | C[C@@H]1CN(c2ccc(OC(F)(F)F)c(C#N)c2)CCN1C(=O)NCCC1CCN(Cc2ccc(I)cc2)CC1 [3-7, (2R)-4-[3-cyano-4-(trifluoromethoxy)phenyl]-N-(2-{1-[(4-iodophenyl)methyl]piperidin-4-yl}ethyl)-2-methylpiperazine-1-carboxamide]
0.1 to 1 | N#Cc1ccccc1N1CCC(C(=O)NCCC2CCN(Cc3ccccc3)CC2)CC1 [10-67, N-[2-(1-benzylpiperidin-4-yl)ethyl]-1-(2-cyanophenyl)piperidine-4-carboxamide]
